# Measured values: the supplement of paper PMC10307832
# Columns and labels:
# Assay in all cases: relative viability (nuclei count vs DMSO), 5 days (fraction); higher = more cells survive
# Ibrutinib + Phenformin = compound: C=CC(=O)N1CCC[C@@H](n2nc(-c3ccc(Oc4ccccc4)cc3)c3c(N)ncnc32)C1 [Ibrutinib] + N=C(N)NC(=N)NCCc1ccccc1 [Phenformin] (partner 250 µM)
# Outline: (§1)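 Lung cancer cell lines were pin-tool dosed in 1536-well plates on the day after seeding, with either a lone drug or a fixed anchor-drug dose plus five library-drug doses (not always all listed) in √10 steps. Nuclei were counted on 4× images after 5 days. Relative viability is the ratio of treated-well to vehicle-well nuclei counts, with each value a median of duplicate plates.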
# Ibrutinib + AZD7762 = compound: C=CC(=O)N1CCC[C@@H](n2nc(-c3ccc(Oc4ccccc4)cc3)c3c(N)ncnc32)C1 [Ibrutinib] + NC(=O)Nc1cc(-c2cccc(F)c2)sc1C(=O)N[C@H]1CCCNC1 [AZD7762] (partner 0.2 µM)
# Outline: as §1
# PAC-1 + Bortezomib = compound: C=CCc1cccc(/C=N/NC(=O)CN2CCN(Cc3ccccc3)CC2)c1O [PAC-1] + CC(C)C[C@H](NC(=O)[C@H](Cc1ccccc1)NC(=O)c1cnccn1)B(O)O [Bortezomib] (partner 0.002 µM)
# Outline: as §1
# Ibrutinib + Navitoclax = compound: C=CC(=O)N1CCC[C@@H](n2nc(-c3ccc(Oc4ccccc4)cc3)c3c(N)ncnc32)C1 [Ibrutinib] + CC1(C)CCC(c2ccc(Cl)cc2)=C(CN2CCN(c3ccc(C(=O)NS(=O)(=O)c4ccc(N[C@H](CCN5CCOCC5)CSc5ccccc5)c(S(=O)(=O)C(F)(F)F)c4)cc3)CC2)C1 [Navitoclax] (partner 0.5 µM)
# Outline: as §1
Cell Line,relative viability (Ibrutinib + Phenformin; first compound 0.005 µM),relative viability (Ibrutinib + Phenformin; first compound 0.01581 µM),relative viability (Ibrutinib + Phenformin; first compound 0.05 µM),relative viability (Ibrutinib + Phenformin; first compound 0.1581 µM),relative viability (Ibrutinib + Phenformin; first compound 0.5 µM),relative viability (Ibrutinib + AZD7762; first compound 0.005 µM),relative viability (Ibrutinib + AZD7762; first compound 0.01581 µM),relative viability (Ibrutinib + AZD7762; first compound 0.05 µM),relative viability (Ibrutinib + AZD7762; first compound 0.1581 µM),relative viability (Ibrutinib + AZD7762; first compound 0.5 µM),relative viability (PAC-1 + Bortezomib; first compound 0.02 µM),relative viability (PAC-1 + Bortezomib; first compound 0.06325 µM),relative viability (PAC-1 + Bortezomib; first compound 0.2 µM),relative viability (PAC-1 + Bortezomib; first compound 2 µM),relative viability (Ibrutinib + Navitoclax; first compound 0.005 µM),relative viability (Ibrutinib + Navitoclax; first compound 0.01581 µM),relative viability (Ibrutinib + Navitoclax; first compound 0.05 µM),relative viability (Ibrutinib + Navitoclax; first compound 0.1581 µM),relative viability (Ibrutinib + Navitoclax; first compound 0.5 µM)
NCI-H322M,0.715,0.675,0.675,0.676,0.569,0.432,0.527,0.514,0.486,0.502,1.21,1.31,1.28,1.07,1.21,1.18,1.26,1.25,0.724
NCI-H441,1.01,0.82,0.912,0.988,1.01,1.18,1.15,1.22,1.28,0.952,0.57,0.358,0.265,0.778,0.561,0.556,0.601,0.731,0.733
NCI-H460,0.636,0.46,0.463,0.572,0.592,0.634,0.563,0.646,0.622,0.659,1.3,1.02,0.859,1.14,1.27,1.01,1.09,1.2,1.13
NCI-H596,–,0.635,0.704,0.607,0.635,0.996,1.15,1.32,–,0.928,0.895,1.09,1.56,1.04,0.924,0.867,0.852,0.962,0.681
NCI-H647,–,0.467,0.411,0.592,0.605,0.413,0.534,0.529,0.3,0.497,0.771,0.924,0.765,0.924,1.09,1.13,1.22,1.05,1.1
NCI-H727,–,0.612,0.546,–,0.401,0.404,0.664,0.524,0.416,0.555,0.905,0.925,0.944,0.818,0.475,0.405,0.374,0.449,0.42
NCI-H838,0.492,0.491,0.581,0.519,0.537,0.739,0.876,0.985,0.946,0.943,0.732,0.717,0.644,0.711,1.18,1.12,1.23,1.17,1.21
NCI-H1355,0.419,0.463,0.485,0.469,0.427,–,0.768,0.846,0.9,0.72,1.15,1.28,1.14,1.2,–,0.904,0.918,0.96,0.801
NCI-H1437,0.352,0.3,0.318,0.317,0.314,1.12,1.12,1.08,1.08,1.16,0.513,0.525,0.414,0.383,1.14,–,1.11,1.13,1.14
